Activity calls are given as the source filed them.
How the values were obtained:
Genome polyprotein = Genome polyprotein (Hepatitis C virus, UniProt Q2Q167); experiment: HCV core protein dimerization inhibitors, dose response, biochemical, TR-FRET (AID 2159); design: species or system Hepacivirus hominis;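 further: blocks dimerization of HCV core protein measured by TR-FRET between tagged core106 pairs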
[1] = biological target: T1, Carboxy-terminal domain RNA polymerase II polypeptide A small phosphatase 1 (Homo sapiens, UniProt Q9GZU7); experiment: inhibitors of CTDSP1, concentration-response testing, biochemical assay, absorbance-based, actives from ultra-high-throughput screening (AID 540297); type: functional
T1 sequence (Q9GZU7 whole entry): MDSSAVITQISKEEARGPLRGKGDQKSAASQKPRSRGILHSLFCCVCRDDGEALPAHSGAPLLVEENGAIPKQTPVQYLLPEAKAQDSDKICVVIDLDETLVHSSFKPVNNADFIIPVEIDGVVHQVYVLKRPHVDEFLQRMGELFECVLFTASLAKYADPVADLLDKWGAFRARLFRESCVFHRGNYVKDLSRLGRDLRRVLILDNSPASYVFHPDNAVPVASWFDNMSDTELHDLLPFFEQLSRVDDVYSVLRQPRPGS

[2] = biological target: T2, Probable nicotinate-nucleotide adenylyltransferase (Staphylococcus aureus (strain N315), UniProt P65502); type: functional, Staphylococcus aureus subsp. aureus N315;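 on IC50 Mean: confirmatory dose-response retesting of NadD inhibitor hits first found in an ultra-high-throughput screen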
[3] = biological target: T2, Probable nicotinate-nucleotide adenylyltransferase; type: functional, Staphylococcus aureus subsp. aureus N315; details: read-out: IC50_Mean
[4] = biological target: T3, RNA-binding protein pos-1 (Caenorhabditis elegans, UniProt G5EF15); experiment: inhibitors of POS-1/mex-3 RNA binding, dose response, biochemical, fluorescence polarization (AID 1964);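 further: purified POS-1 fused to maltose binding protein made in E. coli; potency of compounds blocking POS-1 binding to fluorescent RNA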
T3 sequence (G5EF15 whole entry): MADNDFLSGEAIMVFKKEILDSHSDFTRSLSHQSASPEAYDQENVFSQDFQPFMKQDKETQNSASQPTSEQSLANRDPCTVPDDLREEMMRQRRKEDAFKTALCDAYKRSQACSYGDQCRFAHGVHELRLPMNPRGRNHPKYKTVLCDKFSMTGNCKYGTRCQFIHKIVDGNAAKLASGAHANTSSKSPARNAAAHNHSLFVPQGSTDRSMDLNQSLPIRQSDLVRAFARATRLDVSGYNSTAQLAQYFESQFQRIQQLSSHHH

[5] = biological target: T4, Zinc finger protein mex-5 (Caenorhabditis elegans, UniProt Q9XUB2); experiment: MEX-5/TCR-2 RNA interaction inhibitors, dose response, biochemical, C. elegans, fluorescence polarization (AID 1960)
T4 sequence (Q9XUB2 whole entry): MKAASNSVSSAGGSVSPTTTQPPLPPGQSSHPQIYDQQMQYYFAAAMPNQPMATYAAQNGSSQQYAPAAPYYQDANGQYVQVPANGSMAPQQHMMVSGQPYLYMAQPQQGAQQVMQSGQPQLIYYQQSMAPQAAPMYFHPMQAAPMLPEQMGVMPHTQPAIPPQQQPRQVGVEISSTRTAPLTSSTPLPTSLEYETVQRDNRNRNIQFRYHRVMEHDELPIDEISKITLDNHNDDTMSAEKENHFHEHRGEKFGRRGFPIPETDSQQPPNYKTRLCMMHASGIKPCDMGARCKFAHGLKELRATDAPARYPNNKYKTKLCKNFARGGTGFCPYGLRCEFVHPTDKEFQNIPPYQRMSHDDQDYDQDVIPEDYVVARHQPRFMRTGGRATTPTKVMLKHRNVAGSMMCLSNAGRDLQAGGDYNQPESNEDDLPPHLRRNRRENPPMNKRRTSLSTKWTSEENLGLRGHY

[6] = biological target: T5, Heat shock factor protein 1 (Mus musculus, UniProt P38532); experiment: inhibition of MG132-induced HSE-luciferase signal, confirmation, cell-based, NIH3T3, luminescence, dose retest (AID 2382); type: functional;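 further: NIH3T3 fibroblasts with HSF1-driven luciferase reporter stressed by proteasome inhibitor MG132; luminescence from HSF1-driven luciferase expression after 8 hours of MG132 stress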
T5 sequence (P38532 whole entry): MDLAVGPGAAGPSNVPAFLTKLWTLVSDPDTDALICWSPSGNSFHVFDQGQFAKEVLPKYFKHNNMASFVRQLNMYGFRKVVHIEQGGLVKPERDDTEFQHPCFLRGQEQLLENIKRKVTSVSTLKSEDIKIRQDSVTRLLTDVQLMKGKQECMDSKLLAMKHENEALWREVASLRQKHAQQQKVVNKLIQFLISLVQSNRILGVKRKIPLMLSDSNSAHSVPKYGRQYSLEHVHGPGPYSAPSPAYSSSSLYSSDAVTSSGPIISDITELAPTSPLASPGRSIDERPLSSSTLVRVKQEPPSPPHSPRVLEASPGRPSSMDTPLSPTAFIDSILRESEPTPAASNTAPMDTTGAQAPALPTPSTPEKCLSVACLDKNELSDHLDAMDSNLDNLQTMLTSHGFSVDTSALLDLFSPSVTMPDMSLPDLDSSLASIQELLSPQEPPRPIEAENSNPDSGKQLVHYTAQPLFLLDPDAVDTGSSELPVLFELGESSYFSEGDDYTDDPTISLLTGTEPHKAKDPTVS

[7] = M. tuberculosis H37Rv growth inhibitors, H37Rv strain (AID 1626); type: functional
Ion channel NompC = Ion channel NompC (Danio rerio, UniProt Q7T1G6); experiment: Fluorescence counterscreen assay for TRPML3 agonists: dose response cell-based high-throughput screening assay to identify agonists of the transient receptor potential channel N1 (TRPN1). [Related pubchem assays: 1526, 1424, 1448 ]; type: functional
Mucolipin-3 = Mucolipin-3 (Homo sapiens, UniProt Q8TDD5); experiment: Dose response cell-based high-throughput screening assay for agonists of the transient receptor potential channel ML3 (TRPML3). [Related pubchem assays: 1526, 1424, 1448 ]; type: functional
[8] = inhibitors of Bluetongue virus cytopathic effect, confirmation, arbovirus, BSR cells (AID 1250); type: functional;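 further: protection from viral cytopathic effect measured as cell viability by ATP luminescence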
[9] = HepG2 cell cytotoxicity, dose response, cytotoxicity control for Shn3 inhibitor project, CellTiter-Glo, cherry-picked (AID 624134); type: functional, cell-based
[10] = Shn3 3'UTR reporter inhibitors, dose response, cell-based, Clone20 osteoblasts, firefly luciferase, cherry-picked (AID 624132); type: functional;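 further: firefly luciferase luminescence from reporter carrying the Shn3 3'UTR in osteoblasts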
[11] = Counterscreen for AddAB inhibitors: absorbance-based bacterial cell-based high throughput dose response assay for inhibitors of bacterial viability. [Related pubchem assays (depositor defined):AID435030, AID449728, AID449731, AID488942, AID488955, AID488956]; type: functional
[12] = Luminescence Cell-Based Dose Retest to Confirm Inhibitors of Cancer Stem Cells. [Related pubchem assays (depositor defined):AID2717, AID2721]; type: functional; details: Homo sapiens
[13] = Luminescence Cell-Based Dose Response HTS to Identify Inhibitors of 5'UTR Stem-Loop Driven Prion Protein mRNA Translation in H4 Neuroglioblastoma Cells. [Related pubchem assays: 1827 (Project Summary), 1813 (Primary HTS)]; type: functional
Cytochrome P450 2D6 = Cytochrome P450 2D6 (Homo sapiens, UniProt P10635);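 further: CYP2D6 member of a cytochrome P450 panel assay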
Exodeoxyribonuclease V = Exodeoxyribonuclease V (Escherichia coli (strain K12), UniProt P04993+P07648+P08394); experiment: E. coli RecBCD inhibitors, dose response, counter-screen for AddAB inhibitor project, absorbance, V66 E. coli, mutant T4 phage (AID 492957); type: functional, cell-based, Escherichia coli str. K-12 substr. MG1655
[14] = NIH-3T3 fibroblast cytotoxicity, dose response, cytotoxicity control, cell-based, fluorescence, Alamar Blue, secondary assay (AID 2327); type: functional;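 further: NIH-3T3 mouse fibroblasts cultured with fluconazole at 8 µg/mL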
[15] = inhibitors of firefly luciferase expression or activity, dose response, H4 neuroglioma cells, luminescence (AID 1990); type: functional, cell-based
[16] = biological target: Voltage-gated inwardly rectifying potassium channel KCNH2 (Homo sapiens, UniProt Q12809); experiment: hERG protection from proarrhythmic block, potency, dose response, cell-based, thallium flux (AID 2121); type: ADME
[17] = control 3'UTR Renilla luciferase suppression, dose response, counter-screen for Shn3 inhibitor project, cell-based, Clone20-Shn3RL, cherry-picked (AID 624133); type: functional
[18] = inhibitors of SNCA 5'UTR-driven reporter translation, confirmation, H4 neuroglioma cells, luminescence (AID 1988); type: functional, cell-based
Cytochrome P450 1A2 = biological target: T6, Cytochrome P450 1A2 (Homo sapiens, UniProt P05177);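 further: PubChem cytochrome P450 panel assay, CYP1A2 panel member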
T6 sequence (P05177 whole entry): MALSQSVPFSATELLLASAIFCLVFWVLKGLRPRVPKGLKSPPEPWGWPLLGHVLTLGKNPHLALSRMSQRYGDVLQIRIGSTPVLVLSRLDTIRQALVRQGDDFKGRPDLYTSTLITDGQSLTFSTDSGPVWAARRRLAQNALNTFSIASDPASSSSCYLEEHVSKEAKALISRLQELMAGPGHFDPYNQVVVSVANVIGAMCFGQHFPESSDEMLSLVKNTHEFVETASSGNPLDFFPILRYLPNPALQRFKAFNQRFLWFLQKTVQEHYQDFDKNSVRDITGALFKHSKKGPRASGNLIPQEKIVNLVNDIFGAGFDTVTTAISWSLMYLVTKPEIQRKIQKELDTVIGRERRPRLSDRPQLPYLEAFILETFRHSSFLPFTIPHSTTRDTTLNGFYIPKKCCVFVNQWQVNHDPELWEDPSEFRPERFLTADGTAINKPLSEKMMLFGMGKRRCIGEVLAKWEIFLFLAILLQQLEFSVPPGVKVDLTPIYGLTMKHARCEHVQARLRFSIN

[19] = C. albicans growth with fluconazole, confirmation, fluorescence, retest (AID 2467); type: functional, cell-based
[20] = biological target: Photoreceptor-specific nuclear receptor (Homo sapiens, UniProt Q9Y5X4); experiment: NR2E3 inverse agonists, dose response, biochemical, TR-FRET (AID 463256); type: functional
[21] = biological target: Peroxisome proliferator-activated receptor gamma/Nuclear receptor corepressor 2 (Homo sapiens, UniProt P37231+Q9Y618); experiment: Counterscreen for NR2E3 inverse agonists: TR-FRET-based biochemical high throughput dose response assay to identify inverse agonists of the interaction between peroxisome proliferator-activated receptor gamma (PPARg) and nuclear receptor co-repressor 2 (NCOR2).; type: functional
Cytochrome P450 2C19 = Cytochrome P450 2C19 (Homo sapiens, UniProt P33261); experiment: qHTS Assay for Inhibitors and Substrates of Cytochrome P450 2C19. [Related pubchem assays: 410 ]; type: ADME; details: read-out: Potency
[22] = Luminescence Cell-Based Dose Confirmation HTS to Identify Inhibitors of Platelet Dense Granule Release. [Related pubchem assays: 1663 (Primary HTS), 1678 (Summary of Project)]; type: functional
[23] = biological target: Luciferin 4-monooxygenase (Photinus pyralis, UniProt P08659); experiment: firefly luciferase enzyme inhibitors, dose response, biochemical, luminescence (AID 1891)
[24] = Late stage counterscreen results from the probe development effort to identify activators of signal transducer and activator of transcription 1 (STAT1): luminescence-based cell-based dose response assay to identify cytotoxic compounds.; type: functional
[25] = biological target: Neuropeptide Y receptor type 1 (Homo sapiens, UniProt P25929); type: functional;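 further: HEK293 cells with a CNG channel challenged with NPY then isoproterenol; potency as antagonist that reverses NPY suppression of cAMP signal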
[26] = biological target: Neuropeptide Y receptor type 2 (Homo sapiens, UniProt P49146); type: functional, cell-based;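 further: HEK293 cells expressing the receptor and a CNG channel; stimulus was NPY near EC95 followed by isoproterenol to raise cAMP; antagonist potency measured as restoring cAMP signal that NPY suppresses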
[27] = Fluorescence Cell-Based Dose Response to Identify Inhibitors of Thrombin Receptor-Activating Peptide SFLLRN-Mediated P-Selectin Induction on Platelets. [Related pubchem assays: 1663 (Primary HTS), 1889 (retest at dose ), 1891 (counterscreen), 1678 (Project Summary)]; type: functional
[28] = biological target: Sphingosine 1-phosphate receptor 2 (Homo sapiens, UniProt O95136); experiment: Dose Response Cell Based Assay for Agonists of the S1P2 Receptor of Purchased Analogues. [Related pubchem assays: 729, 843, 854, 736 ]; type: functional
NADPH oxidase 1 = NADPH oxidase 1 (Homo sapiens, UniProt Q9Y5S8); type: functional, cell-based;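 further: Cell-based assay with luminescence read-out, IC50 derived from inhibitor dose-response curves; intracellular ROS from endogenous NOX1 in intact HT29 colon cancer cells; potency of inhibitors that lower the ROS luminescence signal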

T2 sequence (P65502 whole entry): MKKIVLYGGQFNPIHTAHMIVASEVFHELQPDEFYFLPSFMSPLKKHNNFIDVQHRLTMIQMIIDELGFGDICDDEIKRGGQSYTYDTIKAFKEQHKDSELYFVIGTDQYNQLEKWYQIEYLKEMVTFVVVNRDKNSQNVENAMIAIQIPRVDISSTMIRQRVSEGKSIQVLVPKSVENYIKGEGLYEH
Chain of Luciferin 4-monooxygenase (P08659 whole entry): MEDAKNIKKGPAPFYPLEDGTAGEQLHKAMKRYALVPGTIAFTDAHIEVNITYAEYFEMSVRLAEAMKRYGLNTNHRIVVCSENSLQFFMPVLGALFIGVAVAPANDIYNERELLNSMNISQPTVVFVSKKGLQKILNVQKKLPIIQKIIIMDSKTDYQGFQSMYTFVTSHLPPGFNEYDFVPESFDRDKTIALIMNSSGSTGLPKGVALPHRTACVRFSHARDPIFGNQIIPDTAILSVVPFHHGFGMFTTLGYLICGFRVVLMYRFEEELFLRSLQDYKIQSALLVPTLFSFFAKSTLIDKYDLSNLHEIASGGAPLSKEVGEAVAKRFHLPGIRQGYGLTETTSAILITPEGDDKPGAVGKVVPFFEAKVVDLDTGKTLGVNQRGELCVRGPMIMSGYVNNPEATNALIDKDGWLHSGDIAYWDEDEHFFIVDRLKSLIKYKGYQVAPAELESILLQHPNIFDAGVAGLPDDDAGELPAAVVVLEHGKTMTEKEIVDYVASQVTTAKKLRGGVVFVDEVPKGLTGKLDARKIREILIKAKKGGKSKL
Chain of Cytochrome P450 2C19 (P33261 whole entry): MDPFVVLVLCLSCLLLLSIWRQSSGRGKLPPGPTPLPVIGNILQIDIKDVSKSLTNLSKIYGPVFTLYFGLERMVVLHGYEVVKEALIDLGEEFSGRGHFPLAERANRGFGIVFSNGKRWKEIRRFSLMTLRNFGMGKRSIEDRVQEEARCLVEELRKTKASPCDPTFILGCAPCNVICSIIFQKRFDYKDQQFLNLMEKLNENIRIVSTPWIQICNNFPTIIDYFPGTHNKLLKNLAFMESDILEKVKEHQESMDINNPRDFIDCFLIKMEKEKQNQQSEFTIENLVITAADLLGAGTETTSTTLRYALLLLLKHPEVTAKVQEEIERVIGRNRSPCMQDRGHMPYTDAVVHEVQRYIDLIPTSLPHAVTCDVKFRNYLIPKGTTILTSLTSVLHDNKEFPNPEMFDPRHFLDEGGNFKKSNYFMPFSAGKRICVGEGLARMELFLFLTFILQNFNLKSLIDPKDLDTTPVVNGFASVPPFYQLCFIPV
Chain of Sphingosine 1-phosphate receptor 2 (O95136 whole entry): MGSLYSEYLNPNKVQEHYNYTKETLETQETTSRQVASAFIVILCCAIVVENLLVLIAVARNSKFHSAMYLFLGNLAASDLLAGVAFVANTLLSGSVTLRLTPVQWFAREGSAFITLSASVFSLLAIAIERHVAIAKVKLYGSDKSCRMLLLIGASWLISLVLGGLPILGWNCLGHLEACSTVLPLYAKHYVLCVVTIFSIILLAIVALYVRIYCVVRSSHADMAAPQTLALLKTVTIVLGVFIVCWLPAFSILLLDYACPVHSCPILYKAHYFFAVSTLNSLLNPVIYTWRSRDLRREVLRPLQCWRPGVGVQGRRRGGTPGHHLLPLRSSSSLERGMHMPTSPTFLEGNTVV
Chain of Mucolipin-3 (Q8TDD5 whole entry): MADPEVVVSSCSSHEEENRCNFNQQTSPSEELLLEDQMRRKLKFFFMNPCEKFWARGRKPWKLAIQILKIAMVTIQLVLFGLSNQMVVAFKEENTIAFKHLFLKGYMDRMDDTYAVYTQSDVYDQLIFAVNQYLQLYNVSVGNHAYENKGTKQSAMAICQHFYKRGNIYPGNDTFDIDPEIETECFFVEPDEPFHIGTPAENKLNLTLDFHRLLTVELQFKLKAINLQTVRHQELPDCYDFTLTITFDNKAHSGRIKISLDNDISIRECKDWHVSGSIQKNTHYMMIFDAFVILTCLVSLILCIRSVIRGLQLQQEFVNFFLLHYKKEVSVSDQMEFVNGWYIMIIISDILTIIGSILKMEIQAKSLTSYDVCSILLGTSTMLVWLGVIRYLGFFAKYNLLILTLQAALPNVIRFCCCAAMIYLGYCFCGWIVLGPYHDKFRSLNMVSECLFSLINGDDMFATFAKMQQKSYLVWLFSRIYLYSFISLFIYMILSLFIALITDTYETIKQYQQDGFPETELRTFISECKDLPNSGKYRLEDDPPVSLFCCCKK
Chain of Photoreceptor-specific nuclear receptor (Q9Y5X4 whole entry): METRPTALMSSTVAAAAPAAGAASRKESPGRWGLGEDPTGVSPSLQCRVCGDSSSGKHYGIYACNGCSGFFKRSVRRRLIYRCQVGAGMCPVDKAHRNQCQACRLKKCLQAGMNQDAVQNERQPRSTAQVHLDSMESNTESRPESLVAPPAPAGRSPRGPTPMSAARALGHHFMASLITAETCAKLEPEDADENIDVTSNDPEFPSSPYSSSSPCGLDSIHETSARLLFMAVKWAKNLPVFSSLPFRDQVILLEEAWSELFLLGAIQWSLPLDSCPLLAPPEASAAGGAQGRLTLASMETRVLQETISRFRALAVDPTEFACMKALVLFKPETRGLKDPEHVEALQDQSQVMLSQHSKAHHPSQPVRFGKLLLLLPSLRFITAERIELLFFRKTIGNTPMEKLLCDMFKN
Chain of Ion channel NompC (Q7T1G6 whole entry): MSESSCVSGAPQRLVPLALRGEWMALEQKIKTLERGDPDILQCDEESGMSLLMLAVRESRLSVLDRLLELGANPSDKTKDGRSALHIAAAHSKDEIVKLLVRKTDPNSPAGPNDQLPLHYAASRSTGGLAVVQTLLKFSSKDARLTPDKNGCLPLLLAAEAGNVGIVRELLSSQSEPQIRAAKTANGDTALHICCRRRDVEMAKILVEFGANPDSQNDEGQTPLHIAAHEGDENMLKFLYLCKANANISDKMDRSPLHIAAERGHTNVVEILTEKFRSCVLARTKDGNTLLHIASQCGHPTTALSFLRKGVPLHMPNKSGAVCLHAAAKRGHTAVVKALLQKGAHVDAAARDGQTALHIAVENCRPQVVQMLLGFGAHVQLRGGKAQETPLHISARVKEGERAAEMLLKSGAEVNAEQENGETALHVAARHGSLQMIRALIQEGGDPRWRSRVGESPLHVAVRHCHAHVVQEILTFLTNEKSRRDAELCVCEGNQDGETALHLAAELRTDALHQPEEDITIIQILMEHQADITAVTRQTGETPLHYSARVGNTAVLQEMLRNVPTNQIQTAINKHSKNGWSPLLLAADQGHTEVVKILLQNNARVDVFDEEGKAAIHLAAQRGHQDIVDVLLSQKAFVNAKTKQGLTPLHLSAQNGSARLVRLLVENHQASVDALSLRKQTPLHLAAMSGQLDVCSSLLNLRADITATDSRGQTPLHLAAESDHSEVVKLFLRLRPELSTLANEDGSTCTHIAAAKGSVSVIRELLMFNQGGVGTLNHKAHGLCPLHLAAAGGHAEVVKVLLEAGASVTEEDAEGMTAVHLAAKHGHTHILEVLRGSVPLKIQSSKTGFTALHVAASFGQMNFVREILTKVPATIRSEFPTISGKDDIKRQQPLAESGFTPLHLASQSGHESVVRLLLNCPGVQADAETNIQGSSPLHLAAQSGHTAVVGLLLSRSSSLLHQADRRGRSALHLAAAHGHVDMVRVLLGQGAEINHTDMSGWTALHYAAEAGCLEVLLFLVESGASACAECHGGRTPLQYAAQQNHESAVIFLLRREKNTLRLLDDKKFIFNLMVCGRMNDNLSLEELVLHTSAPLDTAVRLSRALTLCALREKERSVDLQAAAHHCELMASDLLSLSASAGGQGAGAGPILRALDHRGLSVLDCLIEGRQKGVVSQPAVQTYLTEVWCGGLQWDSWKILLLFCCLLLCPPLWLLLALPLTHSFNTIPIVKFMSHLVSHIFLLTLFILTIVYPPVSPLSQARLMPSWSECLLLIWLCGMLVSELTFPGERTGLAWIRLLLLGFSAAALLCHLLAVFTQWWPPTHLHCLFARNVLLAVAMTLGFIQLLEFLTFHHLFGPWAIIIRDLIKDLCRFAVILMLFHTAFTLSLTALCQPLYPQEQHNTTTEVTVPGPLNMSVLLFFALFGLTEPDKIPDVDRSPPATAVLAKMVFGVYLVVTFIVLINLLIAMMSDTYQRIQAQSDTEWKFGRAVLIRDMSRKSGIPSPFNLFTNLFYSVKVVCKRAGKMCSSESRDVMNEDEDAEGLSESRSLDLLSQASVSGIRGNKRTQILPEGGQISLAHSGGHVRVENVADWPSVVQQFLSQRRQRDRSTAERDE
Chain of Genome polyprotein (Q2Q167 whole entry, the tested form may be a part): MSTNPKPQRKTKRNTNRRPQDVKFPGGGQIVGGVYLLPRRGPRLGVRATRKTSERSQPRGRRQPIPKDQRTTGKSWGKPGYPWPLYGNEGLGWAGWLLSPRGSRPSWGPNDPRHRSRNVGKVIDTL
Chain of Neuropeptide Y receptor type 1 (P25929 whole entry): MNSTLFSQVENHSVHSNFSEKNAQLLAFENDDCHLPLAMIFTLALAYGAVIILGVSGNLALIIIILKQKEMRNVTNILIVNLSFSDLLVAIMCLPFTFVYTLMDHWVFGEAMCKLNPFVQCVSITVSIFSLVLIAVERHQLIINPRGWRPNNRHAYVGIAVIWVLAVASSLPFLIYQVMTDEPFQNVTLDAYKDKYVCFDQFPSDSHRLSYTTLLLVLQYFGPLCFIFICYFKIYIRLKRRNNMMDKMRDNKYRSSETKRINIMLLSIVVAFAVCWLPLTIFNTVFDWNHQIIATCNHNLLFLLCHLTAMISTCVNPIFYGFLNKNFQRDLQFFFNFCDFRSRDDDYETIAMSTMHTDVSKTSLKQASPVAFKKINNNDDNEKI

Cc1ccc(NC(=O)c2cc(-c3ccco3)nc3ccccc23)cc1S(=O)(=O)N1CCOCC1
IC50 (Genome polyprotein): > 49.8 µM (not active) | IC50 [1]: 5.51 µM (active) | IC50 [2]: 8.01 µM (active) | IC50 [3]: 26.6 µM (active)

COc1ccc(/N=C/c2c(O)ccc3ccccc23)cc1
EC50 [4]: > 300 µM (not active) | EC50 [5]: > 300 µM (not active) | EC50 [6]: 35.1 µM (active) | IC50 [7]: > 100 µM (active)

COc1cc(S(=O)(=O)N(C)C2CCCCC2)c(C)cc1C
EC50 (Ion channel NompC): > 29.9 µM (not active) | EC50 (Mucolipin-3): 3.06 µM (active)

COc1ccc(-c2c3c(cc(C)[n+]2[O-])oc2ccc(OC)cc23)cc1
IC50 [8]: 22 µM (active)

Cc1cc([N+](=O)[O-])ccc1-c1ccc(C2Nc3ccccc3C(=O)N2O)o1 (stereo not drawn)
AC50 [9]: 32.9 µM (active) | AC50 [10]: 3.32 µM (active) | IC50 [11]: > 119 µM (inactive) | AC50 [12]: 5.3 µM (active) | EC50 [13]: 10.4 µM (active) | AC50 (Cytochrome P450 2D6): 20 µM (inconclusive) | IC50 (Exodeoxyribonuclease V): > 119 µM (inactive) | EC50 [14]: > 160 µM (inconclusive) | EC50 [15]: 10.3 µM (active) | EC50 [16]: 2.58 µM (active) | AC50 [17]: 11.3 µM (active) | EC50 [18]: 8.61 µM (active) | AC50 (Cytochrome P450 1A2): 25.1 µM (inconclusive) | EC50 [19]: 1.31 µM (active)

Cn1c(SCC(=O)Nc2cccc(F)c2)nnc1-c1cc2ccccc2o1
IC50 [20]: 2.61 µM (active) | IC50 [21]: 1.67 µM (active)

CC(C)C[C@@H](CC(=O)N[C@H](CC(=O)N[C@@H]1CCCC[C@H]1C(=O)N[C@H](CC(=O)N[C@@H](CCC(=O)O)CC(=O)O)CC(C)C)C(C)C)NC(=O)[C@@H]1CNCC[C@H]1N
AC50 (Cytochrome P450 2C19): 31.6 µM (inconclusive)

O=C(/C=C/Nc1ccccc1F)c1ccc(Br)cc1
EC50 [22]: > 112 µM (not active) | EC50 [23]: 74.5 µM (active) | IC50 [24]: > 55.7 µM (not active)

COc1ccc(-c2nc(C#N)c(NC(C)c3ccccc3)o2)cc1OC (stereo not drawn)
IC50 [25]: 7.77 µM (active) | IC50 [26]: 3.55 µM (active)

COc1cc2c(cc1OC)-c1cc(N3CCCCCC3)nc(=O)n1CC2
EC50 [27]: < 300 nM (active) | EC50 [22]: 1.66 µM (active) | EC50 [23]: > 112 µM (not active)

Cc1cc(C(=O)CSc2ncccn2)c(C)n1Cc1ccccc1
EC50 [28]: > 30 µM (not active)

O=[N+]([O-])c1ccc(-c2nc(-c3ccccc3)c(-c3ccccc3)[nH]2)cc1
IC50 (NADPH oxidase 1): > 17 µM (not active)

Reference: ChEMBL document CHEMBL1201862, “PubChem BioAssay data set” (2004)
